Assay results published in the Kinase Knowledgebase extract (Sharma et al. 2016).

Key:
Experiment in all cases: Enzyme Assay
PIK3CB (Human) = PIK3CB (Human) (UniProt P42338)
PIK3CG (human) = PIK3CG (human) (UniProt P48736)
PIK3CD (Human) = PIK3CD (Human) (UniProt O00329)
PIK3CA (human) = PIK3CA (human) (UniProt P42336)
Sequence of PIK3CA (human) (P42336 whole entry, looked up): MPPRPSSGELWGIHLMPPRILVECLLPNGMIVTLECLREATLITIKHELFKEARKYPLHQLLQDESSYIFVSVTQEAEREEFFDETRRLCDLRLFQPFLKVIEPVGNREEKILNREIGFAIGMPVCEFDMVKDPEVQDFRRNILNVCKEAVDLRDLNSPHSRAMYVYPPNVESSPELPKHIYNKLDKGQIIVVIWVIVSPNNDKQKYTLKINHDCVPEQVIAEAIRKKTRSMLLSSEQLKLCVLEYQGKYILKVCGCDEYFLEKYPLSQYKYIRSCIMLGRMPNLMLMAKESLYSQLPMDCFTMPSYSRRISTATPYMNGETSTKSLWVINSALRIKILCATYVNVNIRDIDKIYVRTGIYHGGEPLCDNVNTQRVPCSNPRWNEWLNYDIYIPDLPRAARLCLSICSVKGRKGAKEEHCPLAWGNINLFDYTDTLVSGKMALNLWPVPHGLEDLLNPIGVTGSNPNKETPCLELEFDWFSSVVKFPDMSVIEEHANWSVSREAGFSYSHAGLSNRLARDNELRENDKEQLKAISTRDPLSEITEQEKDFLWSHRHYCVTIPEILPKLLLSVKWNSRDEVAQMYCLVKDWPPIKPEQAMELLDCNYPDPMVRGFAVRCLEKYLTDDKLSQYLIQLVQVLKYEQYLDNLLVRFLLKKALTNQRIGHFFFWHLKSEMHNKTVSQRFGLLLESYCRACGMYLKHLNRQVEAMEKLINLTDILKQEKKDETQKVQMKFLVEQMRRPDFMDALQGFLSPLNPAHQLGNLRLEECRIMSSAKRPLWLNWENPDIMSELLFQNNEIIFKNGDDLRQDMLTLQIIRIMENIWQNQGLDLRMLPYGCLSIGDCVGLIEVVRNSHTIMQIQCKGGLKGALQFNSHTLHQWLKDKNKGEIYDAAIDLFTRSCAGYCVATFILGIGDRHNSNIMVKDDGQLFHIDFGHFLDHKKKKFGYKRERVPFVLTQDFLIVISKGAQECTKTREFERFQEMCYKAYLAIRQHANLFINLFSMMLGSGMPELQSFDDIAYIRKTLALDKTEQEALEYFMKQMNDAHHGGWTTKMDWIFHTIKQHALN

Sequence of PIK3CG (human) (P48736 whole entry, looked up): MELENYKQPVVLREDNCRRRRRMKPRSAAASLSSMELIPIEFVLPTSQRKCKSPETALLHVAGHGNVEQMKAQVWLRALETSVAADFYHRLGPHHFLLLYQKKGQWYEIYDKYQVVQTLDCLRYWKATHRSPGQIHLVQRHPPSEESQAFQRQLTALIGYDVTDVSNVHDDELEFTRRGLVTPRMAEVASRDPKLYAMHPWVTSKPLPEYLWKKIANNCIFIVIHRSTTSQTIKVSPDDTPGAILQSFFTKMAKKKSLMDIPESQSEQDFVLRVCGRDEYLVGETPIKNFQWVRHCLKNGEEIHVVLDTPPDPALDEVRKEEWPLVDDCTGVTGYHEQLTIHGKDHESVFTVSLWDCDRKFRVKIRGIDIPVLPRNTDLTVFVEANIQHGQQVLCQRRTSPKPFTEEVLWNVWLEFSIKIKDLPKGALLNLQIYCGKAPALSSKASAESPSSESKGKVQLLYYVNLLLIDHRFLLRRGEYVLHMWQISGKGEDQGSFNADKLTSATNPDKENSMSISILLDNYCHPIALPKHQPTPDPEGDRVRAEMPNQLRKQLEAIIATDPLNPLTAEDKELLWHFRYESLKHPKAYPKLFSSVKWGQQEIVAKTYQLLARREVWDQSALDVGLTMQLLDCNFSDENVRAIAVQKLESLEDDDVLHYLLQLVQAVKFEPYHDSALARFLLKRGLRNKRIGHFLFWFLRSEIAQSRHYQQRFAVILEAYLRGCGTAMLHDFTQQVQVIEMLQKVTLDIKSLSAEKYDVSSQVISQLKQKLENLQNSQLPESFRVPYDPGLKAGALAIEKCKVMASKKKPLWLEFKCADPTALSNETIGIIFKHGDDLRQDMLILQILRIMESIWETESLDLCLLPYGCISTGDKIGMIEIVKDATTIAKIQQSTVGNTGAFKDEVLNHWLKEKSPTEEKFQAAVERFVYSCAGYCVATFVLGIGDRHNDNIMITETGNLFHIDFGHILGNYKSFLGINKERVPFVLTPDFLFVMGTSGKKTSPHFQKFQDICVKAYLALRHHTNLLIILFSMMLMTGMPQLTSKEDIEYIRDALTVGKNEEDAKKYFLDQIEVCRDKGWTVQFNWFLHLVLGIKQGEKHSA
Sequence of PIK3CB (Human) (P42338 whole entry, looked up): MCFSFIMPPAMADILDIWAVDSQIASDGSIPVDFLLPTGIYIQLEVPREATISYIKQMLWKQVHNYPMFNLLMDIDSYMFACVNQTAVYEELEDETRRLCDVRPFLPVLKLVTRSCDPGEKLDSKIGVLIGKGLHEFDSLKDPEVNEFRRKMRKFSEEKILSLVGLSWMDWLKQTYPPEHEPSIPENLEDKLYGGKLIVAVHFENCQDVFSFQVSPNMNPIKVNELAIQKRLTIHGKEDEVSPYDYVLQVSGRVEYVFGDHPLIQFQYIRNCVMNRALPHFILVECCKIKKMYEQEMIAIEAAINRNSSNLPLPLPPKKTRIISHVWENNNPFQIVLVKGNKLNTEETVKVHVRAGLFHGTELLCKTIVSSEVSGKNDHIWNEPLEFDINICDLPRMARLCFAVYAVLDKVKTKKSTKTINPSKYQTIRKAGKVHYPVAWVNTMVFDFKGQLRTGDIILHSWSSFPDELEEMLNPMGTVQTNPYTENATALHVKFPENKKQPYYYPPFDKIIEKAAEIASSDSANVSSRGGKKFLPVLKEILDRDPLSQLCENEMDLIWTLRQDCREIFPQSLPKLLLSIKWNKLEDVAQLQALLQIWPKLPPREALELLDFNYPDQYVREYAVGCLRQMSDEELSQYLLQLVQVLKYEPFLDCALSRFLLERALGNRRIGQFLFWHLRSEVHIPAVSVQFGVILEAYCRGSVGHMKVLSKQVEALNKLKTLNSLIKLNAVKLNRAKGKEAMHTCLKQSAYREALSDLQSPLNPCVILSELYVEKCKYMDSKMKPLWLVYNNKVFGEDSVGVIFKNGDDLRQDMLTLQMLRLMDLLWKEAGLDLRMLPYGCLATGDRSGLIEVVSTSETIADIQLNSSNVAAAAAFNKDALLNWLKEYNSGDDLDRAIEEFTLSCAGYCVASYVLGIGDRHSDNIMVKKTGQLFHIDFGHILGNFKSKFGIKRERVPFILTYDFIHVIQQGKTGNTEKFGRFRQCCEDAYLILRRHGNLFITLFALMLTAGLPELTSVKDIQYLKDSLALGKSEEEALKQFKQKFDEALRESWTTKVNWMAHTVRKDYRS
Sequence of PIK3CD (Human) (O00329 whole entry, looked up): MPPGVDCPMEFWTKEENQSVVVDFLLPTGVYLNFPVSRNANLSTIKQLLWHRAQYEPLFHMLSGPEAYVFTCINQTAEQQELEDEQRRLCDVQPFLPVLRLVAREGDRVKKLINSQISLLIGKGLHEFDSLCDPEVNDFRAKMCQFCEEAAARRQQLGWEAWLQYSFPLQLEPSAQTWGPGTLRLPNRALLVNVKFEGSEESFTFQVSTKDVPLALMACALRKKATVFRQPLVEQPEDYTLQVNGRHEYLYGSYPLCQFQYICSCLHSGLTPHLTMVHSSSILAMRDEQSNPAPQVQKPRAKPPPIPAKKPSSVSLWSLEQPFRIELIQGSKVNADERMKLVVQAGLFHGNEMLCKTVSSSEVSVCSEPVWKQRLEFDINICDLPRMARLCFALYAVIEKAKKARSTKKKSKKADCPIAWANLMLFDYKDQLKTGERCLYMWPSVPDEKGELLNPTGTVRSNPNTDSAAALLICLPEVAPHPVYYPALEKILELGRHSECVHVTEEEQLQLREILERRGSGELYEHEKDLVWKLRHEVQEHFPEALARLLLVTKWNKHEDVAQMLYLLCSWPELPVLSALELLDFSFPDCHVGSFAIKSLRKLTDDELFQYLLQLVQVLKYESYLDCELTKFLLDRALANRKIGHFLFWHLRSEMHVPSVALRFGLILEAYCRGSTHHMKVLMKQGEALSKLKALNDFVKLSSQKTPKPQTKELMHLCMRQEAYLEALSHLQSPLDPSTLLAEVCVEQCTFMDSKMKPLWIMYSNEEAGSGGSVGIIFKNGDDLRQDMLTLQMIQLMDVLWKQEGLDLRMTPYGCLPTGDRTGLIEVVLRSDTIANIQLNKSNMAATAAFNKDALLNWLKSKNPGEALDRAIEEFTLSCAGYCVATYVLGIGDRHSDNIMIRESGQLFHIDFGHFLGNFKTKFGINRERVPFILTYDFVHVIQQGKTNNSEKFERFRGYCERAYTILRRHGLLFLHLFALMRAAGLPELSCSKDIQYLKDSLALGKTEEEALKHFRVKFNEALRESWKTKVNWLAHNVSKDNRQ

SMILES	IC50 (PIK3CB (Human))	IC50 (PIK3CG (human))	IC50 (PIK3CD (Human))	IC50 (PIK3CA (human))
O=c1cc(N2CCOCC2)nc2n1CC[C@@H](C(F)(F)F)N2C[C@H](O)c1ccccc1	998 nM	> 10000 nM	–	–
CC(C)OCCN1c2nc(N3CCOCC3)cc(=O)n2CC[C@H]1C(F)(F)F	233 nM	1750 nM	211 nM	–
CC1(C)CCn2c(nc(N3CCOCC3)cc2=O)N1C[C@@H](O)c1ccccc1	4590 nM	7350 nM	1170 nM	1920 nM
O=c1cc(N2CC3CCC(C2)O3)nc2n1CC[C@@H](C(F)(F)F)N2Cc1ccc(Cl)s1	–	–	3790 nM	3690 nM
CC(C)OCCN1c2nc(N3CCOCC3)cc(=O)n2CCC1(C)C	> 10000 nM	> 10000 nM	4130 nM	7430 nM
C[C@H]1COCCN1c1cc(=O)n2c(n1)N(Cc1ccc(Cl)s1)[C@H](C(F)(F)F)CC2	643 nM	1820 nM	364 nM	1010 nM
O=c1cc(N2CCOCC2)nc2n1CC[C@@H](C(F)(F)F)N2c1cc(F)cc(F)c1	340 nM	3510 nM	270 nM	–
C[C@@H]1COCCN1c1cc(=O)n2c(n1)N(Cc1ccc(Cl)s1)[C@H](C(F)(F)F)CC2	–	–	1300 nM	2900 nM
O=c1cc(N2CCOCC2)nc2n1CCC1(CC1)N2C[C@@H](O)c1ccccc1	3500 nM	2930 nM	606 nM	931 nM

Now from value to compound:

IC50 (PIK3CB (Human))	IC50 (PIK3CG (human))	IC50 (PIK3CD (Human))	IC50 (PIK3CA (human))	SMILES
16 nM	15 nM	–	–	O=c1cc(N2CCOCC2)nc2n1CC[C@@H](C(F)(F)F)N2C[C@@H](O)c1ccccc1
99 nM	1600 nM	53 nM	50 nM	O=c1cc(N2CCOCC2)nc2n1CC[C@@H](C(F)(F)F)N2Cc1ccccc1
218 nM	7170 nM	169 nM	502 nM	O=c1cc(N2CCOCC2)nc2n1CC[C@@H](C(F)(F)F)N2Cc1ccc(Cl)s1
93 nM	1880 nM	61 nM	–	O=c1cc(N2CCOCC2)nc2n1CC[C@@H](C(F)(F)F)N2c1ccccc1
34 nM	628 nM	27 nM	88 nM	CC(C)OCCN1c2nc(N3CCOCC3)cc(=O)n2CC[C@@]1(C)C(F)(F)F
36 nM	107 nM	14 nM	17 nM	O=c1cc(N2CCOCC2)nc2n1CC[C@@H](C(F)(F)F)N2CCc1ccccc1
